Data as given in US20240318160A1 (Wisconsin Alumni Research Foundation, priority 2023, published 2024).
Values joined by “and” are separate entries in the source; they are usually repeats but may differ in a detail not shown here. Identical values can stand only once.

Assays:
Format in all cases: biochemical
[1] = test system: Joinvillea ascendens JaPAL variant S112I (JaPAL^S112I), SEQ ID NO: 258; test: TAL and PAL enzyme kinetics; details: PAL assay (L-Phe), pH 8.5, 30° C.
Method: (§1) To test this hypothesis further, the reciprocal S112I mutation was introduced into the JaPAL^F140H single mutant to generate the JaPAL^F140H_S112I double mutant. For comparison, a single mutant in which the residue corresponding to Ser112 was converted to Ile (i.e., JaPAL^S112I) was generated as well.
(§2) A mixture containing 100 mM Tris-HCl (pH 8.5), 1% glycerol, and purified enzyme in a total volume of 50 μl was preincubated for 3 min at 30° C. […] The reactions were terminated by addition of 6N acetic acid (10 μl).
(§3) The kinetic parameters of the recombinant enzymes were determined using HPLC. Reaction mixtures containing 100 mM Tris-HCl (pH 8.5), 1% glycerol, and purified enzyme (0.15 μg for PAL assay and 1 μg for TAL assay) in a 50 μl total volume were preincubated for 3 min at 30° C. […] After 10 min and 20 min incubations for PAL and TAL assay, respectively, at 30° C., the reaction was terminated by addition of 6N acetic acid (10 μl). […] The products were quantified using calibration curves generated using authentic standards. Non-linear hyperbolic regression analyses were conducted using the Excel Solver tool to calculate Km and Vmax values.

[2] = test system: Joinvillea ascendens JaPAL variant F140H/S112I (JaPAL^F140H_S112I), SEQ ID NO: 145; test: TAL and PAL enzyme kinetics; details: PAL assay (L-Phe), pH 8.5, 30° C.
Method: as §1, §2, §3

[3] = test system: PAL^F140H mutants (JaPAL^F140H, EmoPAL^F134H, BdPAL^F137H, SbPAL^F135H); test: TAL and PAL enzyme kinetics, group of enzymes; details: PAL activity, on average
Method: as §3

grass PTAL enzymes = test: TAL and PAL enzyme kinetics, group of enzymes; details: PAL activity (L-Phe), range over grass PTAL enzymes
Method: as §3

[4] = test system: Ecdeiocolea monostachya EmoPAL variant F134H (EmoPAL^F134H); test: TAL and PAL enzyme kinetics; details: PAL assay (L-Phe), pH 8.5, 30° C.
Method: as §2, §3

[5] = test system: Joinvillea ascendens JaPAL variant F140H (JaPAL^F140H), SEQ ID NO: 259; test: TAL and PAL enzyme kinetics; details: PAL assay (L-Phe), pH 8.5, 30° C.
Method: as §2, §3

[6] = test system: Joinvillea ascendens JaPTAL, wild type, SEQ ID NO: 27; test: TAL and PAL enzyme kinetics; details: PAL assay (L-Phe), pH 8.5, 30° C.
Method: as §2, §3

[7] = test system: Streptochaeta angustifolia SaPTAL-a, wild type; test: TAL and PAL enzyme kinetics; details: PAL assay (L-Phe), pH 8.5, 30° C.
Method: as §2, §3

[8] = test system: Joinvillea ascendens JaPAL, wild type, SEQ ID NO: 28; test: TAL and PAL enzyme kinetics; details: PAL assay (L-Phe), pH 8.5, 30° C.
Method: as §2, §3

[9] = test system: Joinvillea ascendens JaPTAL (SEQ ID NO: 27) variant H125F/I97S (JaPTAL^H125F_I97S); test: TAL and PAL enzyme kinetics; details: PAL assay (L-Phe), pH 8.5, 30° C.
Method: as §2, §3

[10] = test system: Streptochaeta angustifolia SaPTAL-b, wild type; test: TAL and PAL enzyme kinetics; details: PAL assay (L-Phe), pH 8.5, 30° C.
Method: as §2, §3

[11] = test system: Ecdeiocolea monostachya EmoPTAL variant H127F (EmoPTAL^H127F); test: TAL and PAL enzyme kinetics; details: PAL assay (L-Phe), pH 8.5, 30° C.
Method: as §2, §3

[12] = test system: Joinvillea ascendens JaPTAL (SEQ ID NO: 27) variant H125F (JaPTAL^H125F); test: TAL and PAL enzyme kinetics; details: PAL assay (L-Phe), pH 8.5, 30° C.
Method: as §2, §3

[13] = test system: Ecdeiocolea monostachya EmoPAL, wild type; test: TAL and PAL enzyme kinetics; details: PAL assay (L-Phe), pH 8.5, 30° C.
Method: as §2, §3

[14] = test system: Streptochaeta angustifolia SaPTAL-b variant H126F (SaPTAL-b^H126F); test: TAL and PAL enzyme kinetics; details: PAL assay (L-Phe), pH 8.5, 30° C.
Method: as §2, §3

[15] = test system: Sorghum bicolor SbPAL variant F135H (SbPAL^F135H); test: TAL and PAL enzyme kinetics; details: PAL assay (L-Phe), pH 8.5, 30° C.
Method: as §2, §3

`N[C@@H](Cc1ccccc1)C(=O)O` [L-Phe, phenylalanine] gave a Km [1] of 2.6 ± 0.5 µM, a kcat [1] of 0.21 ± 0.04 s⁻¹ and a kcat/Km [1] of 79800 ± 0 M⁻¹ s⁻¹. It also gave a Km [2] of 67.3 ± 2.5 µM, a kcat [2] of 0.77 ± 0.01 s⁻¹ and a kcat/Km [2] of 11460 ± 210 M⁻¹ s⁻¹. The “Km toward Phe relative to corresponding wild-type enzymes” value [3] was 35 fold, the Km (grass PTAL enzymes) was 150 to 227 µM and the Km [4] was 1310 ± 25.6 µM. It also gave a kcat [4] of 0.42 ± 0.01 s⁻¹, a kcat/Km [4] of 320 ± 10 M⁻¹ s⁻¹ and a Km [5] of 697 ± 169 µM. For the same molecule, the kcat [5] was 0.60 ± 0.04 s⁻¹, the kcat/Km [5] was 890 ± 180 M⁻¹ s⁻¹ and the Km [6] was 66 µM and 65.6 µM. For the same molecule, the kcat [6] was 0.5 s⁻¹ and 0.45 ± 0.02 s⁻¹, the kcat/Km [6] was 6800 ± 180 M⁻¹ s⁻¹ and the Km [7] was 154 ± 3.7 µM. For the same molecule, the kcat [7] was 0.39 ± 0.01 s⁻¹, the kcat/Km [7] was 2510 ± 30 M⁻¹ s⁻¹ and the Km [8] was 24 µM and 24.4 µM. The kcat [8] was 1.9 s⁻¹ and 1.92 ± 0.01 s⁻¹, the kcat/Km [8] was 78600 ± 0 M⁻¹ s⁻¹ and the Km [9] was 9.42 ± 0.8 µM. It also gave a kcat [9] of 0.02 ± 0.00 s⁻¹, a kcat/Km [9] of 1660 ± 120 M⁻¹ s⁻¹ and a Km [10] of 227.4 ± 1.5 µM. For the same molecule, the kcat [10] was 0.56 ± 0.02 s⁻¹, the kcat/Km [10] was 2460 ± 100 M⁻¹ s⁻¹ and the Km [11] was 3.6 ± 0.5 µM. The kcat [11] was 0.12 ± 0.00 s⁻¹, the kcat/Km [11] was 32620 ± 2120 M⁻¹ s⁻¹ and the Km [12] was 6.8 ± 0.7 µM. For the same molecule, the kcat [12] was 0.08 ± 0.00 s⁻¹, the kcat/Km [12] was 12280 ± 710 M⁻¹ s⁻¹ and the Km [13] was 27.7 ± 1.9 µM. It also gave a kcat [13] of 1.23 ± 0.02 s⁻¹, a kcat/Km [13] of 44700 ± 2390 M⁻¹ s⁻¹ and a Km [14] of 6.3 ± 0.5 µM. The kcat/Km [14] was 37050 ± 2120 M⁻¹ s⁻¹, the Km [15] was 1050 ± 58.5 µM and the kcat [15] was 0.88 ± 0.05 s⁻¹.
